Tests used:
Format in all cases: biochemical
PKC-γ = molecular target: T1, PKC-γ (Homo sapiens, UniProt P05129); experiment: PKC-γ kinase selectivity assay; settings: Table 4 kinase selectivity; read-out: IC50, Assay 6 PKC-γ
T1 construct: purchased BIOMOL SE-143; host or cells: insect cells
Description: (§1) Assays to test compound inhibition of other kinases were preformed using methods that measure the amount of phosphorylation of a biotinylated peptide substrate. Biotinylated peptide substrates were selected from the literature as appropriate for the enzyme being evaluated. […] Assay conditions vary slightly for each protein kinase, for example, insulin receptor kinase requires 10 mM MnCl2 for activity and Calmodulin-dependent protein kinase requires calmodulin and 2 mM CaCl2. The reaction mixture was dispensed into the wells of a streptavidin coated Flashplate and 1 μl drug stock in 100% DMSO was added to a 100 μl reaction volume resulting in a final concentration of 1% DMSO in the reaction. Enzyme was diluted in 50 mM Tris-HCl pH=8.0, 0.1% BSA and added to each well. The reaction was incubated for one hour at 30° C. in the presence of compound. After one hour the reaction mix was aspirated from the plate and the plate was washed with PBS containing 100 mM EDTA. The plate was read on a scintillation counter to determine ^33P-γ-ATP incorporated into the immobilized peptide. Test compounds were assayed in duplicate at 8 concentrations [100 tM, 10 μM, 1 μM, 100 nM, 10 nM, 1 nM, 100 μM, 10 μM]. A maximum and minimum signal for the assay was determined on each plate. The IC50 was calculated from the dose response curve of the percent inhibition of the maximum signal in the assay according to the formula [max signal−background/test compound signal−background (100)=% inhibition] by graphing the percent inhibition against the log concentration of test compound. Known inhibitor compounds appropriate for the kinase being assayed were also included on each plate.
(§2) VEGF-R (vascular endothelial growth factor receptor-2) is a fusion protein containing a polyhistidine tag at the N-terminus followed by amino acids 786-1343 of the rat VEGF-R2 kinase domain (GenBank Accession #U93306). CDK1 (cyclin dependent kinase 1) is isolated from insect cells expressing both the human CDK1 catalytic subunit and its positive regulatory subunit cyclin B (New England Biolabs, Beverly, Mass., Cat. #6020). CDK4 (cyclin dependent kinase 4) contains amino acids 769 to 921 of the mouse […] protein found in the GST-retinoblastoma protein construct (Santa Cruz Biotechnology, Santa Cruz, Calif.; Cat. #SC-4112). Insulin Receptor Kinase consists of residues 941-1313 of the cytoplasmic domain of the beta-subunit of the human insulin receptor (BIOMOL, Plymouth Meeting, Pa., Cat. #SE-195). Protein Kinase A is the catalytic subunit of cAMP dependent protein kinase-A purified from bovine heart (Upstate Biotech, Lake Placid, N.Y., Cat#14-114). PKC (protein kinase-C) is the gamma or beta isoform of the human protein produced in insect cells (BIOMOL, Plymouth Meeting, Pa., Cat. #SE-143). Casein Kinase 1 is a truncation at amino acid 318 of the C-terminal portion of the rat CK1 delta isoform produced in E.coli (New England Biolabs, Beverly, Mass., Cat. #6030). Casein Kinase 2 includes the alpha and beta subunits of the human CK2 protein produced in E.coli (New England Biolabs, Beverly, Mass., Cat. #6010). Calmodulin Kinase (calmodulin-dependent protein kinase 2) is a truncated version of the alpha subunit of the rat protein produced in insect cells (New England Biolabs, Beverly, Mass., Cat. #6060). Glycogen Synthase Kinase-3 is the beta isoform of the rabbit enzyme produced in E. coli (New England Biolabs, Beverly, Mass., Cat. #6040). MAP Kinase is the rat ERK-2 isoform containing a polyhistidine tag at the N-terminus produced in E. coli. and activated by phosphorylation with MEK1 prior to purification (BIOMOL, Plymouth Meeting, Pa., Cat. #SE-137). EGFR (epidermal growth factor receptor) is purified from human A431 cell membranes (Sigma, St. Louis, Mo., Cat.# E3641). PDGF-R (platelet derived growth factor receptor) is a fusion protein containing a polyhistidine tag at the N-terminus followed by nucleotides 1874-3507 of the human PDGF-R beta subunit kinase domain (Accession #M21616). […]

FGF-R2 = FGF-R2 (Homo sapiens, UniProt P21802); experiment: FGF-R2 kinase selectivity assay; settings: Table 4 kinase selectivity; read-out: IC50, Assay 15 FGF-R2
FGF-R2, sequence (P21802 22-821, species assumed): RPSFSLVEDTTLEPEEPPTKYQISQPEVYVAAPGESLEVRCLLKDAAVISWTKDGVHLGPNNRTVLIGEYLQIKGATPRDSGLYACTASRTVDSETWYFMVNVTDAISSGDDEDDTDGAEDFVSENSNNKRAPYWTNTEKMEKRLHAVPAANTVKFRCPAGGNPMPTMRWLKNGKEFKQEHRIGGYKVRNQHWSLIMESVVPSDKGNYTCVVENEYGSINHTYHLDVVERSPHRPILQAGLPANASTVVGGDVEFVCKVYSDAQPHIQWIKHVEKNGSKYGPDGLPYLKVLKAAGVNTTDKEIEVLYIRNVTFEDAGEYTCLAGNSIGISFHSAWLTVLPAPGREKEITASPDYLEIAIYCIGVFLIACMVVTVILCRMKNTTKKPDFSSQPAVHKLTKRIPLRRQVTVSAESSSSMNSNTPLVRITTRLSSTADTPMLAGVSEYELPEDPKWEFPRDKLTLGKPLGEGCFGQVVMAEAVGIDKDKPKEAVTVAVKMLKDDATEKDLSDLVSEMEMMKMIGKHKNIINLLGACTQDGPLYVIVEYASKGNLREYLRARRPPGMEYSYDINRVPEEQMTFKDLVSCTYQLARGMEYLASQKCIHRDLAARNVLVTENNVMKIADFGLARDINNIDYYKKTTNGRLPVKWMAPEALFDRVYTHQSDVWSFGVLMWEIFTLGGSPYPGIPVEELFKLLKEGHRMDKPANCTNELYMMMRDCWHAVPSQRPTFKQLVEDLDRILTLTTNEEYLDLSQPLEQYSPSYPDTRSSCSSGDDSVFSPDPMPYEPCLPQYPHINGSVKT
Description: (§3) Assays to test compound inhibition of other kinases were preformed using methods that measure the amount of phosphorylation of a biotinylated peptide substrate. Biotinylated peptide substrates were selected from the literature as appropriate for the enzyme being evaluated. The general procedure used to assay for kinase activity is as follows: A kinase reaction mix was prepared in 50 mM Tris-HCl pH=8, 10 mM MgCl2, 0.1 mM NaVO4, 1 mM DTT, 5-10 μM ATP, 0.25-1 μM biotinylated peptide substrate, 0.2-0.8 μCuries per well ^33P-γ-ATP [2000-3000 Ci/mmol]. Assay conditions vary slightly for each protein kinase, for example, insulin receptor kinase requires 10 mM MnCl2 for activity and Calmodulin-dependent protein kinase requires calmodulin and 2 mM CaCl2. The reaction mixture was dispensed into the wells of a streptavidin coated Flashplate and 1 μl drug stock in 100% DMSO was added to a 100 μl reaction volume resulting in a final concentration of 1% DMSO in the reaction. Enzyme was diluted in 50 mM Tris-HCl pH=8.0, 0.1% BSA and added to each well. The reaction was incubated for one hour at 30° C. in the presence of compound. After one hour the reaction mix was aspirated from the plate and the plate was washed with PBS containing 100 mM EDTA. The plate was read on a scintillation counter to determine ^33P-γ-ATP incorporated into the immobilized peptide. Test compounds were assayed in duplicate at 8 concentrations [100 tM, 10 μM, 1 μM, 100 nM, 10 nM, 1 nM, 100 μM, 10 μM]. A maximum and minimum signal for the assay was determined on each plate. The IC50 was calculated from the dose response curve of the percent inhibition of the maximum signal in the assay according to the formula [max signal−background/test compound signal−background (100)=% inhibition] by graphing the percent inhibition against the log concentration of test compound. Known inhibitor compounds appropriate for the kinase being assayed were also included on each plate.

PKC-β2 = molecular target: T2, PKC-β2 (Homo sapiens, UniProt P05771); experiment: PKC-β2 kinase selectivity assay; settings: Table 4 kinase selectivity; read-out: IC50, Assay 7 PKC-β2
T2 construct: purchased BIOMOL SE-143; host or cells: insect cells
T2 sequence (P05771 1-673 isoform P05771-2): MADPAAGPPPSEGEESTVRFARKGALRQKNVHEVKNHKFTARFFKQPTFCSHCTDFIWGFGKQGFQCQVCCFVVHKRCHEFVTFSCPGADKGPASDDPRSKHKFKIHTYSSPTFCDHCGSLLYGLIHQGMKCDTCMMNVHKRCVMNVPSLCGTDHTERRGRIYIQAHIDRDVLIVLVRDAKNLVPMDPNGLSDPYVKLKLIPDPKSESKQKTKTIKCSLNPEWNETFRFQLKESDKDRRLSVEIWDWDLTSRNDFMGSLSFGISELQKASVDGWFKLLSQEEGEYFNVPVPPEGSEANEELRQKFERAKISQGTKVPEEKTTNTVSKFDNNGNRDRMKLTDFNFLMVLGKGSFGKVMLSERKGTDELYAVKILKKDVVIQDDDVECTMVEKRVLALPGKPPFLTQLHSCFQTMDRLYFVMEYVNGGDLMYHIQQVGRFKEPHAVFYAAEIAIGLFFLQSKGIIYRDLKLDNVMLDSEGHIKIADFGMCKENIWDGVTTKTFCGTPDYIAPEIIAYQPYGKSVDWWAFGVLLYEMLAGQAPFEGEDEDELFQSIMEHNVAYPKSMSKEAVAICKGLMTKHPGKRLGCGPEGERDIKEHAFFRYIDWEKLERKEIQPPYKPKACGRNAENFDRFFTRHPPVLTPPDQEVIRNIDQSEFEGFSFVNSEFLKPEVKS
Description: as §1, §2

MAP Kinase ERK-2 = molecular target: T3, MAP Kinase ERK-2 (Rattus norvegicus, UniProt P63086); experiment: MAP Kinase ERK-2 selectivity assay; settings: Table 4 kinase selectivity; read-out: IC50, Assay 12 MAP Kinase ERK-2
T3 construct: polyhistidine (N); purchased BIOMOL SE-137; host or cells: E. coli
T3 sequence (P63086 whole entry): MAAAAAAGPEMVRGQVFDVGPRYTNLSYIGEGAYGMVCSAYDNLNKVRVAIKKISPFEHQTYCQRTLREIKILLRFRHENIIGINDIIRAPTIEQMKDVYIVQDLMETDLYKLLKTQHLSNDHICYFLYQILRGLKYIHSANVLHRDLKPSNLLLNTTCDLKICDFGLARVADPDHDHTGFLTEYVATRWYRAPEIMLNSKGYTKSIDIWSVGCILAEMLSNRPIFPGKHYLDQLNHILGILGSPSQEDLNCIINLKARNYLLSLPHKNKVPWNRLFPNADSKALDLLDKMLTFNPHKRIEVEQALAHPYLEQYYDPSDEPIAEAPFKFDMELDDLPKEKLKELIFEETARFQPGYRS
Description: as §1, §2

[1] = molecular target: CDK4 (cyclin dependent kinase 4) (Homo sapiens, UniProt P11802); experiment: CDK4 kinase selectivity assay; settings: Table 4 kinase selectivity; 10 = approximate value; read-out: IC50, Assay 3 CDK4
CDK4 (cyclin dependent kinase 4), sequence (P11802 whole entry, species assumed): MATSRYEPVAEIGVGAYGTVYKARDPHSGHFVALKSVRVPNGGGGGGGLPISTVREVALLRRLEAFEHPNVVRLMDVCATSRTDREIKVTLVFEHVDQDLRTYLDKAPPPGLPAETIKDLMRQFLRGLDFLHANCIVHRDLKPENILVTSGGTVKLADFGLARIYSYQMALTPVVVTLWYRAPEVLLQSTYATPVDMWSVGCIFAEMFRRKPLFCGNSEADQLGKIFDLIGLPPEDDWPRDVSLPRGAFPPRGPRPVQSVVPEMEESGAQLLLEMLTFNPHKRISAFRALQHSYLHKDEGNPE
CDK4 (cyclin dependent kinase 4), sequence (P24385 whole entry partner, species assumed): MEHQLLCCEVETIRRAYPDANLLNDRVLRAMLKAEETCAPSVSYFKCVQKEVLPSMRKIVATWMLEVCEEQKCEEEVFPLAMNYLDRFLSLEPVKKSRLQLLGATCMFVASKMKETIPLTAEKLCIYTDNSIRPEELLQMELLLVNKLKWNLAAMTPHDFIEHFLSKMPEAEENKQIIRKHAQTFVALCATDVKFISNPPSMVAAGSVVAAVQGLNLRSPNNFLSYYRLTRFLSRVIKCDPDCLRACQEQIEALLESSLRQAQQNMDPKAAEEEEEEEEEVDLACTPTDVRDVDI
Description: as §1
VEGF-R (vascular endothelial growth factor receptor-2) is a fusion protein containing a polyhistidine tag at the N-terminus followed by amino acids 786-1343 of the rat VEGF-R2 kinase domain (GenBank Accession #U93306). CDK1 (cyclin dependent kinase 1) is isolated from insect cells expressing both the human CDK1 catalytic subunit and its positive regulatory subunit cyclin B (New England Biolabs, Beverly, Mass., Cat. #6020). CDK4 (cyclin dependent kinase 4) contains amino acids 769 to 921 of the mouse […] protein found in the GST-retinoblastoma protein construct (Santa Cruz Biotechnology, Santa Cruz, Calif.; Cat. #SC-4112). Insulin Receptor Kinase consists of residues 941-1313 of the cytoplasmic domain of the beta-subunit of the human insulin receptor (BIOMOL, Plymouth Meeting, Pa., Cat. #SE-195). Protein Kinase A is the catalytic subunit of cAMP dependent protein kinase-A purified from bovine heart (Upstate Biotech, Lake Placid, N.Y., Cat#14-114). PKC (protein kinase-C) is the gamma or beta isoform of the human protein produced in insect cells (BIOMOL, Plymouth Meeting, Pa., Cat. #SE-143). […]

HER2 = HER2 (Homo sapiens, UniProt P04626); experiment: HER2 kinase selectivity assay; settings: Table 4 kinase selectivity; read-out: IC50, Assay 16 HER2
HER2, sequence (P04626 23-1255, species assumed): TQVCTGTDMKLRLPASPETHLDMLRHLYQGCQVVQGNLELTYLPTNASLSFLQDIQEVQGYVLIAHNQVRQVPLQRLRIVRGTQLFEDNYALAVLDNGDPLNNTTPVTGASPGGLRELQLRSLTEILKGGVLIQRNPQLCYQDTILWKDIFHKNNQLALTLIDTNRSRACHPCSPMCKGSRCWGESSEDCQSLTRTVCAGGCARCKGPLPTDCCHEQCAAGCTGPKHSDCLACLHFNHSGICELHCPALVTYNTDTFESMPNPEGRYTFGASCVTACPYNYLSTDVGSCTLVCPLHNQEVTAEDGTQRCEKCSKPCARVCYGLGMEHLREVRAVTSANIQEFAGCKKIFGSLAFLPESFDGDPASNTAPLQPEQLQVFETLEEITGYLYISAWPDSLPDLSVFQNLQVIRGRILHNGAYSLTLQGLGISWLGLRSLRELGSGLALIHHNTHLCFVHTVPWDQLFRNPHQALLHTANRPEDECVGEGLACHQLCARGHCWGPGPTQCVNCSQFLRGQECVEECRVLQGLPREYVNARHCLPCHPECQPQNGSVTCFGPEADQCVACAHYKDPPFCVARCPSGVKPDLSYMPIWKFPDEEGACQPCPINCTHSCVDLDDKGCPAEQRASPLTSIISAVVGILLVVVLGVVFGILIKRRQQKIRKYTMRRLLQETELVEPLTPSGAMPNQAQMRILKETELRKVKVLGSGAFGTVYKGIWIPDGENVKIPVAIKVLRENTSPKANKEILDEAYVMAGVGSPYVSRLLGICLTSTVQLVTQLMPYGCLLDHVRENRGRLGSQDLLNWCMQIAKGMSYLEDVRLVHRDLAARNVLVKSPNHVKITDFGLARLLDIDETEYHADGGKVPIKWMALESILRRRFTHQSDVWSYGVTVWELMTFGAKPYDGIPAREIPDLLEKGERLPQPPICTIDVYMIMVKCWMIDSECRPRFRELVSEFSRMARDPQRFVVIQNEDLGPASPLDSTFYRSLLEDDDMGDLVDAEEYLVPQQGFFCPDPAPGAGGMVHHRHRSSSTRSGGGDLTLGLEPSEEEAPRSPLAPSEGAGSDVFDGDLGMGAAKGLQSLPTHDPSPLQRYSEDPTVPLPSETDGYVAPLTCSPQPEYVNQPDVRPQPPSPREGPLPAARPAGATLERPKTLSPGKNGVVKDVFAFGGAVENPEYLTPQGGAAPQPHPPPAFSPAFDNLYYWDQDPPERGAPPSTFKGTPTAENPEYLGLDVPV
Description: as §3

**Q.** What does the source list for `OCCCNc1cncc(-c2cncc(Nc3cccc(Cl)c3)n2)c1` [Cmd 4]?
**A.** IC50 (PKC-γ): > 100 µM; IC50 (FGF-R2): 0.207 µM; IC50 (PKC-β2): > 100 µM; IC50 (MAP Kinase ERK-2): > 100 µM; IC50 [1]: ~10 µM

**Q.** Which results are given for `Clc1cccc(Nc2cncc(-c3cncc(NCCCc4cccnc4)c3)n2)c1` [Cmd 72]?
**A.** IC50 (FGF-R2): 0.293 µM; IC50 (HER2): 9.7 µM; IC50 (MAP Kinase ERK-2): > 100 µM

**Q.** With `Clc1cccc(Nc2cncc(-c3cncc(NCCCn4cccn4)c3)n2)c1` [Cmd 75] as the compound, how does the IC50 (FGF-R2) read?
**A.** 0.326 µM

**Q.** What about the IC50 (HER2) of the same compound?
**A.** 3 µM

**Q.** And the IC50 (MAP Kinase ERK-2)?
**A.** > 100 µM

**Q.** Which IC50 (FGF-R2) does the source give for `Clc1cccc(Nc2cncc(-c3cncc(NCCCn4cncn4)c3)n2)c1` [Cmd 76] here?
**A.** 0.153 µM

**Q.** What about the IC50 (HER2) of the same compound?
**A.** 2.24 µM

**Q.** What about the IC50 (MAP Kinase ERK-2) of the same compound?
**A.** > 100 µM

**Q.** How did the IC50 (PKC-γ) turn out when `OCCCCNc1cncc(-c2cncc(Nc3cccc(Cl)c3)n2)c1` [Cmd 32] was run?
**A.** > 100 µM

**Q.** And the IC50 (FGF-R2)?
**A.** 2.36 µM

**Q.** And the IC50 (PKC-β2)?
**A.** > 100 µM

**Q.** And the IC50 (MAP Kinase ERK-2)?
**A.** > 100 µM

**Q.** What about the IC50 [1] of the same compound?
**A.** > 10 µM

**Q.** Which IC50 (PKC-γ) does the source give for `CN(C)CCCNc1cncc(-c2cncc(Nc3cccc(Cl)c3)n2)c1` [Cmd 35] here?
**A.** 14.5 µM

**Q.** And the IC50 (FGF-R2)?
**A.** 3.07 µM

**Q.** And the IC50 (PKC-β2)?
**A.** > 100 µM

**Q.** And the IC50 (MAP Kinase ERK-2)?
**A.** > 100 µM

**Q.** And the IC50 [1]?
**A.** ~10 µM

**Q.** For `Clc1cccc(Nc2cncc(-c3cncc(NCCCc4ccncc4)c3)n2)c1` [Cmd 71], which IC50 (FGF-R2) is on record?
**A.** 0.317 µM

**Q.** And the IC50 (HER2)?
**A.** > 100 µM

**Q.** And the IC50 (MAP Kinase ERK-2)?
**A.** > 100 µM

**Q.** With `O=C(NCCCO)c1cncc(-c2cncc(Nc3cccc(Cl)c3)n2)c1` [Cmd 39] as the compound, how does the IC50 (PKC-γ) read?
**A.** > 100 µM

**Q.** And the IC50 (FGF-R2)?
**A.** 1.8 µM

**Q.** And the IC50 (PKC-β2)?
**A.** > 100 µM

**Q.** And the IC50 (MAP Kinase ERK-2)?
**A.** > 100 µM

**Q.** What does the source list for `Clc1cccc(Nc2cncc(-c3cncc(NCCCN4CCCCC4)c3)n2)c1` [Cmd 73]?
**A.** IC50 (PKC-γ): 1.36 µM; IC50 (FGF-R2): 0.276 µM; IC50 (PKC-β2): 1.75 µM; IC50 (HER2): 7.2 µM; IC50 (MAP Kinase ERK-2): > 100 µM

**Q.** Which results are given for `CN(C)CCNc1cncc(-c2cncc(Nc3cccc(Cl)c3)n2)c1` [Cmd 33, N′-[5-[6-[(3-chlorophenyl)amino]pyrazinyl]-3-pyridinyl]-N^2,N^2-dimethyl-1,2-ethanediamine]?
**A.** IC50 (PKC-γ): 3.96 µM; IC50 (FGF-R2): 1.4 µM; IC50 (PKC-β2): > 100 µM; IC50 (MAP Kinase ERK-2): > 100 µM; IC50 [1]: ~10 µM

— patent US6710048B2, “Pyrazine derivatives as modulators of tyrosine kinases” (Ortho-McNeil Pharmaceutical, Inc., priority 2000, dated 2004)
